# Assay results from publication PMC7782793, “Hydroxamic acid-modified peptide microarrays for profiling isozyme-selective interactions and inhibition of histone deacetylases” (Nature Communications, 2021).
# “And” between values parts separate entries of the source, which are not always exact repeats. Equal values may be shown once. Marks after values point to notes of the source that are not given here. Non-standard residues stand in square brackets, D forms with d. Residues, ends and D or L forms follow the SMILES beside them. *: point of attachment. Asu = N[C@@H](CCCCCC(=O)O)C(=O)O; NHOH = ON*
# Columns and labels:
# [1] = biological target: T1, HDAC6 (Homo sapiens, UniProt Q9UBN7); test: HDAC inhibition assay (fluorogenic, Ac-Leu-Gly-Lys(Ac)-AMC); assay type: biochemical; details: HDAC6, replicates
# T1 construct: HDAC6 (full length, BPS Bioscience, cat. #: 50056); purchased BPS Bioscience 50056
# T1 sequence (Q9UBN7 1-1215): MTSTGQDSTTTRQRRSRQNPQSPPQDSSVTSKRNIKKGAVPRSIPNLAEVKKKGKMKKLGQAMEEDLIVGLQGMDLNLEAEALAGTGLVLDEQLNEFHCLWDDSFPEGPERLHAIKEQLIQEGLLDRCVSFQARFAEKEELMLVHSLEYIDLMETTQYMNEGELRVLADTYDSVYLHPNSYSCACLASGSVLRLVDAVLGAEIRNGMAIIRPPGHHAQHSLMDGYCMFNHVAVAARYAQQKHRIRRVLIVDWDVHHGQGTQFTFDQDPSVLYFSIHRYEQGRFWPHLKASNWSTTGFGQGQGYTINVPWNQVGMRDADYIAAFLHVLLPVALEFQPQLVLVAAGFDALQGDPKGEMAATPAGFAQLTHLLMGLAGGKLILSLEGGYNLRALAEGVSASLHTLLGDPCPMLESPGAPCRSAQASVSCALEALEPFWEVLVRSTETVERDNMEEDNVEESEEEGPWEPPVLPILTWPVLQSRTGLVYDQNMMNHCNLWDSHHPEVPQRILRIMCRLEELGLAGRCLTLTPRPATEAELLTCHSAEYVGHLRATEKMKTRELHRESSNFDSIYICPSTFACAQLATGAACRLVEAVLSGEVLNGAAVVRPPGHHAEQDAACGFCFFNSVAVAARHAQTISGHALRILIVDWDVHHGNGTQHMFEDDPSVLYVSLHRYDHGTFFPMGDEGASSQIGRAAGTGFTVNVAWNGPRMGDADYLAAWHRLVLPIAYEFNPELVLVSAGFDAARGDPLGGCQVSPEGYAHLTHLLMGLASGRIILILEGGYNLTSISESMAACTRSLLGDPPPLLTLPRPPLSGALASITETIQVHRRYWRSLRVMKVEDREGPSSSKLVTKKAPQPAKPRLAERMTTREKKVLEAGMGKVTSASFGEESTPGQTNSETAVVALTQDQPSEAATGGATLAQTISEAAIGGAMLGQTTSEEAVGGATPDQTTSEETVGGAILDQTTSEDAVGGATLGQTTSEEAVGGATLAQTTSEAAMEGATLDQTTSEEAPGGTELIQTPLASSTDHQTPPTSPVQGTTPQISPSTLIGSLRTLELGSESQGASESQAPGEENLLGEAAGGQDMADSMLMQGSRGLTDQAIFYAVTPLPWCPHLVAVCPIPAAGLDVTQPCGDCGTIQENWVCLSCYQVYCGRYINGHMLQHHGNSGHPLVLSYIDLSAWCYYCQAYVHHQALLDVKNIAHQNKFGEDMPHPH
# [2] = biological target: T2, HDAC2 (Homo sapiens, UniProt Q92769); test: as above; assay type: biochemical; details: for HDAC2 dose-response data (relative enzyme activity), Fig. 6 + S. Fig. 10: duplicate columns
# T2 construct: HDAC2 (full length, C-terminal His tag, BPS Bioscience, cat. #: 50002); purchased BPS Bioscience 50002
# [3] = biological target: T2, HDAC2; test: Recombinant HDAC µSPOT microarray binding assay
# Protocol: Experiments were performed twice, data were obtained with Array Analyze software (Active Motif), and data analysis and representation were performed with the GraphPad Prism 7 software. Outliers were curated manually and data were fitted to nonlinear regression [log(agonist) vs. response—variable slope (four parameters)]. […] Non-sigmoidal curves were denoted as not determined (N.D.) The pEC50 values were determined as the concentration of HDAC enzyme required for half-maximal binding signal.
# [4] = biological target: T3, HDAC3/NCoR2 (Homo sapiens, UniProt O15379); test: HDAC inhibition assay (fluorogenic, Ac-Leu-Gly-Lys(Ac)-AMC); assay type: biochemical; details: for HDAC3 dose-response data (relative enzyme activity), Fig. 6 + S. Fig. 10: duplicate columns
# T3 construct: HDAC3/NCoR2 (full length, C-terminal His tag, NCoR2 N-terminal GST tag); purchased BPS Bioscience 50003
# [5] = biological target: T4, HDAC1 (Homo sapiens, UniProt Q13547); test: Recombinant HDAC µSPOT microarray binding assay;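 also: slides with spotted peptides incubated with six HDAC concentrations in HEPES buffer pH 7.4, spot intensities fitted by four-parameter logistic, EC50 as enzyme concentration giving half-maximal binding signal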
# T4 construct: HDAC1 (full length, C-terminal His tag, C-terminal FLAG tag, BPS Bioscience, cat. #: 50051); FLAG (C); purchased BPS Bioscience 50051
# [6] = biological target: T4, HDAC1; test: HDAC inhibition assay (fluorogenic, Ac-Leu-Gly-Lys(Ac)-AMC); assay type: biochemical; details: for HDAC1 dose-response data (relative enzyme activity), Fig. 6 + S. Fig. 10: duplicate columns
# [7] = biological target: T5, HDAC8 (Homo sapiens, UniProt Q9BY41); test: HDAC inhibition assay (fluorogenic, Ac-Leu-Gly-Lys(Tfa)-AMC); assay type: biochemical; details: for HDAC8 dose-response data (relative enzyme activity, replicate values), Fig. 6 + S. Fig. 10: two replicate columns per inhibitor; for HDAC8 dose-response data (relative enzyme activity), Fig. 6 + S. Fig. 10: duplicate columns
# T5 construct: HDAC8 (full length, C-terminal His tag, BPS Bioscience, cat. #: 50008); purchased BPS Bioscience 50008
# T5 sequence (Q9BY41 1-377): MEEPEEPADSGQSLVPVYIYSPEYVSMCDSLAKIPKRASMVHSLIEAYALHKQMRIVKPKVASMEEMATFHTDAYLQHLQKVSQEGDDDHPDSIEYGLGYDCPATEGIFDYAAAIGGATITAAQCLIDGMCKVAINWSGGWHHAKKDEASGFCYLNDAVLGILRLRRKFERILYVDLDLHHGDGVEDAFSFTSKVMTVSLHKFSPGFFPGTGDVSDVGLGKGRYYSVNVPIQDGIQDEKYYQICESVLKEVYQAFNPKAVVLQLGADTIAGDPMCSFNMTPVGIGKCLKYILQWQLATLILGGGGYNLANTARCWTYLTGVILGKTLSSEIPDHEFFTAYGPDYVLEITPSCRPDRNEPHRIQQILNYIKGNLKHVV
# [8] = biological target: T3, HDAC3/NCoR2; test: Recombinant HDAC µSPOT microarray binding assay
# [9] = log[inhibitor(M)] -10,5850266520292*, whole line marked with asterisks
# T3 sequence (O15379 whole entry): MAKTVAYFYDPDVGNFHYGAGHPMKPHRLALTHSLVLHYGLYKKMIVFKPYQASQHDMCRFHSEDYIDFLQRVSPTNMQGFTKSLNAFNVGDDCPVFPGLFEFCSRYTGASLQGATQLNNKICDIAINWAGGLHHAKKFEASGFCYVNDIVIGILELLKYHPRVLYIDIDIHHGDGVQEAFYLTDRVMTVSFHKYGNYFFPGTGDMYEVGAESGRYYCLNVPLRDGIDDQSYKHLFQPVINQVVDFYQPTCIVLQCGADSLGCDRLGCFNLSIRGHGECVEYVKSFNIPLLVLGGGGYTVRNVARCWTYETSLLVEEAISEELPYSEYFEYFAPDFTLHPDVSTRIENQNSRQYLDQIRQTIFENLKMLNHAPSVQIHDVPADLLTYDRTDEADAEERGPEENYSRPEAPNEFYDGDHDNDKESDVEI
# T3 sequence (Q9Y618 389-480 partner limits assumed): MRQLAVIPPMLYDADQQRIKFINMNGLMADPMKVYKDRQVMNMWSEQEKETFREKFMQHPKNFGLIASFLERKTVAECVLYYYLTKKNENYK
# T4 sequence (Q13547 whole entry): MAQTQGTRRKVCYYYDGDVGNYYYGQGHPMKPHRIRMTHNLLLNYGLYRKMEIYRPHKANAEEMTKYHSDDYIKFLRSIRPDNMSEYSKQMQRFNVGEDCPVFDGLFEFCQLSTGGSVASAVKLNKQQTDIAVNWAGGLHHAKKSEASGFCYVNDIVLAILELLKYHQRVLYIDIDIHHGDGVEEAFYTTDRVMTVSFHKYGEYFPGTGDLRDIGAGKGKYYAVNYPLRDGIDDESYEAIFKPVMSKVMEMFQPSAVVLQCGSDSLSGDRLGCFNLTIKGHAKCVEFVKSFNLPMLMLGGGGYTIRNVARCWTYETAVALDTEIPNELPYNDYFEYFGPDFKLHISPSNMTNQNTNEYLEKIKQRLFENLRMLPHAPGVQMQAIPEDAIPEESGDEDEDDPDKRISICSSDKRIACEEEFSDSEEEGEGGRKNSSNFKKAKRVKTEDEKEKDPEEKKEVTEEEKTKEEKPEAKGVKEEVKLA
# T2 sequence (Q92769 whole entry): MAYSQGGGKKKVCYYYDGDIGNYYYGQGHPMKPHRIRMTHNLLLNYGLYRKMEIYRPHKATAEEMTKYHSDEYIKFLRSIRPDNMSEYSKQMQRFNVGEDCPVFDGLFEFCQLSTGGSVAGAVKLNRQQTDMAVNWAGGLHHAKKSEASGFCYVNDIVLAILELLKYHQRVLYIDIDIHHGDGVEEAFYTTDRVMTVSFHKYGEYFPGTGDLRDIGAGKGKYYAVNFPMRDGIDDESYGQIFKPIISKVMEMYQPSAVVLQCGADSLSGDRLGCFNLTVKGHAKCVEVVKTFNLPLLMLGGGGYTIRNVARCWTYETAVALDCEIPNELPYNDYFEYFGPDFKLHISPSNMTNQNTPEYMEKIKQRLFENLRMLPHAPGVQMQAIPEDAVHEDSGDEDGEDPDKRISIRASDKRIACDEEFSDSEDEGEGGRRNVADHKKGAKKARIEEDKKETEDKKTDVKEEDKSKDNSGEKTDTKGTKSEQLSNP
smiles,measurement,setting,value
CC(=O)N[C@@H](C)C(=O)N1CCC[C@H]1C(=O)N[C@@H](C)C(=O)N1CCC[C@H]1C(=O)N[C@@H](CCCCN)C(=O)N[C@@H](CCCCCC(=O)NO)C(=O)NCC(=O)N[C@@H](CO)C(=O)N[C@@H](CCCCN)C(=O)N[C@@H](CCCCN)C(=O)N[C@@H](C)C(=O)N[C@H](C(=O)N[C@H](C(=O)N[C@@H](CCCCN)C(=O)N[C@@H](C)C(=O)N[C@@H](CCC(N)=O)C(=O)N[C@@H](Cc1c[nH]c2ccccc12)C(N)=O)[C@@H](C)O)C(C)C [10a] (Ac-APAPK[Asu](NHOH)GSKKAVTKAQW-NH2),residual enzymatic activity relative to control wells,[1]; log[inhibitor(M)] -4.30103,1.4 and 0.93
same,residual enzymatic activity relative to control wells,[1]; log[inhibitor(M)] -5,3.09 and 2.23
same,residual enzymatic activity relative to control wells,[1]; log[inhibitor(M)] -5.69897,13.76 and 8.98
same,residual enzymatic activity relative to control wells,[1]; log[inhibitor(M)] -6.39794,36.89 and 30.05
same,residual enzymatic activity relative to control wells,[1]; log[inhibitor(M)] -7.09691,68.83 and 58.89
same,residual enzymatic activity relative to control wells,[1]; log[inhibitor(M)] -7.79588,90.1 and 83.16
same,residual enzymatic activity relative to control wells,[1]; log[inhibitor(M)] -8.49485,98.1 and 88.82
same,residual enzymatic activity relative to control wells,[1]; log[inhibitor(M)] -9.19382,100.25 and 95.78
same,residual enzymatic activity relative to control wells,[1]; log[inhibitor(M)] -9.89279,102.47 and 98.2
same,residual enzymatic activity relative to control wells,[1]; log[inhibitor(M)] -10.585,"99,94* and 98,05*"
same,"HDAC2 dose-response data (relative enzyme activity), Fig. 6 + S. Fig. 10",[2]; log[inhibitor(M)] -5,21.842 and 17.4503
same,"HDAC2 dose-response data (relative enzyme activity), Fig. 6 + S. Fig. 10",[2]; log[inhibitor(M)] -5.69897,44.183 and 59.677
same,"HDAC2 dose-response data (relative enzyme activity), Fig. 6 + S. Fig. 10",[2]; log[inhibitor(M)] -7.79588,120.227 and 109.311
same,"HDAC2 dose-response data (relative enzyme activity), Fig. 6 + S. Fig. 10",[2]; [9],"109,81* and 112,306*"
same,Ki,"[2]; resynthesized peptide in solution, Cheng-Prusoff, n = 2",0.239 ± 0.004 µM
same,EC50,[3],> 0.0251 µM
same,Ki,[4],0.0512 ± 0.0009 µM
same,"HDAC3 dose-response data (relative enzyme activity), Fig. 6 + S. Fig. 10",[4]; log[inhibitor(M)] -4.30103,2.766 and 1.97
same,"HDAC3 dose-response data (relative enzyme activity), Fig. 6 + S. Fig. 10",[4]; log[inhibitor(M)] -5,10.2945 and 7.913
same,"HDAC3 dose-response data (relative enzyme activity), Fig. 6 + S. Fig. 10",[4]; log[inhibitor(M)] -5.69897,26.7937 and 20.8193
same,"HDAC3 dose-response data (relative enzyme activity), Fig. 6 + S. Fig. 10",[4]; log[inhibitor(M)] -6.39794,46.8605 and 38.5396
same,"HDAC3 dose-response data (relative enzyme activity), Fig. 6 + S. Fig. 10",[4]; log[inhibitor(M)] -7.09691,73.2021 and 63.7098
same,"HDAC3 dose-response data (relative enzyme activity), Fig. 6 + S. Fig. 10",[4]; log[inhibitor(M)] -7.79588,98.3444 and 77.95
same,"HDAC3 dose-response data (relative enzyme activity), Fig. 6 + S. Fig. 10",[4]; log[inhibitor(M)] -8.49485,104.594 and 95.6609
same,"HDAC3 dose-response data (relative enzyme activity), Fig. 6 + S. Fig. 10",[4]; log[inhibitor(M)] -9.19382,108.819 and 98.0987
same,"HDAC3 dose-response data (relative enzyme activity), Fig. 6 + S. Fig. 10",[4]; log[inhibitor(M)] -9.89279,107.136 and 105.407
same,"HDAC3 dose-response data (relative enzyme activity), Fig. 6 + S. Fig. 10",[4]; [9],"106,9896* and 85,1199*"
same,EC50,[5],0.00871 µM
same,Ki,[6],0.111 ± 0.002 µM
same,"HDAC1 dose-response data (relative enzyme activity), Fig. 6 + S. Fig. 10",[6]; log[inhibitor(M)] -4.30103,5.334 and 4.212
same,"HDAC1 dose-response data (relative enzyme activity), Fig. 6 + S. Fig. 10",[6]; log[inhibitor(M)] -5.69897,29.499 and 30.3493
same,"HDAC1 dose-response data (relative enzyme activity), Fig. 6 + S. Fig. 10",[6]; log[inhibitor(M)] -6.39794,63.3422 and 57.5642
same,"HDAC1 dose-response data (relative enzyme activity), Fig. 6 + S. Fig. 10",[6]; log[inhibitor(M)] -7.09691,92.4396 and 86.4688
same,"HDAC1 dose-response data (relative enzyme activity), Fig. 6 + S. Fig. 10",[6]; log[inhibitor(M)] -7.79588,116.265 and 84.5085
same,"HDAC1 dose-response data (relative enzyme activity), Fig. 6 + S. Fig. 10",[6]; log[inhibitor(M)] -8.49485,113.205 and 105.123
same,"HDAC1 dose-response data (relative enzyme activity), Fig. 6 + S. Fig. 10",[6]; log[inhibitor(M)] -9.19382,116.621 and 108.226
same,"HDAC1 dose-response data (relative enzyme activity), Fig. 6 + S. Fig. 10",[6]; log[inhibitor(M)] -9.89279,112.611 and 105.771
same,"HDAC1 dose-response data (relative enzyme activity), Fig. 6 + S. Fig. 10",[6]; [9],"102,7345* and 100,1809*"
same,Ki,[7],2.24 ± 0.02 µM
same,"HDAC8 dose-response data (relative enzyme activity, replicate values), Fig. 6 + S. Fig. 10",[7]; Inhibitor conc [M] -8.49485 (log),108.857 and 102.18
same,"HDAC8 dose-response data (relative enzyme activity, replicate values), Fig. 6 + S. Fig. 10",[7]; Inhibitor conc [M] -9.19382 (log),106.186 and 101.221
same,"HDAC8 dose-response data (relative enzyme activity, replicate values), Fig. 6 + S. Fig. 10",[7]; Inhibitor conc [M] given as -7.09691 (log),102.611 and 104.497
same,"HDAC8 dose-response data (relative enzyme activity, replicate values), Fig. 6 + S. Fig. 10",[7]; Inhibitor conc [M] given as -7.79588 (log),103.781 and 99.0423
same,"HDAC8 dose-response data (relative enzyme activity, replicate values), Fig. 6 + S. Fig. 10",[7]; Inhibitor conc [M] given as -9.89279 (log),110.267 and 101.97
same,"HDAC8 dose-response data (relative enzyme activity), Fig. 6 + S. Fig. 10",[7]; Inhibitor conc [M] -3.60206,2.527 and 3.969
same,"HDAC8 dose-response data (relative enzyme activity), Fig. 6 + S. Fig. 10",[7]; Inhibitor conc [M] -4.30103,9.773 and 11.8218
same,"HDAC8 dose-response data (relative enzyme activity), Fig. 6 + S. Fig. 10",[7]; Inhibitor conc [M] -5,29.4256 and 37.404
same,"HDAC8 dose-response data (relative enzyme activity), Fig. 6 + S. Fig. 10",[7]; Inhibitor conc [M] -5.69897,62.2051 and 60.7878
same,"HDAC8 dose-response data (relative enzyme activity), Fig. 6 + S. Fig. 10",[7]; Inhibitor conc [M] -6.39794,91.1582 and 94.1836
same,EC50,[8],0.00309 µM
